Assay results reported in patent publication US6498174B1, “Substituted oxazoles and thiazoles derivatives as hPPARγ and hPPARα activators” (SmithKline Beecham Corporation, priority 1998, dated 2002).

test system: Male Zucker Diabetic Fatty rats; assay: In vivo evaluation in Zucker Diabetic Fatty rats; design: species or system rat; conditions: oral gavage b.i.d., 7 days, percent reduction from vehicle control at day 7 relative to normalization (plasma glucose 140 mg/dL)
Description: Male Zucker Diabetic Fatty rats were lightly anesthetized with isofluorane gas and bleed by tail vein to obtain postprandial baseline concentrations for plasma glucose, serum lipids and insulin. Animals were baseline matched by plasma glucose and randomized into vehicle or treatment groups with compound administration by oral gavage, b.i.d., beginning at 8.5 weeks of age. Selected compounds were administered as a suspension in 0.5% methylcellulose for 7 consecutive days. Changes in body weight and food consumption were monitored from representative animals from each group, over a 48 hr period. After 7 days of treatment animals were anesthetized, blood samples obtained and analyzed for plasma glucose and lactate, serum triglyceride, total and HDL cholesterol, non-esterified free fatty acids and insulin concentration. Livers were weighed and corrected for body weight. Values in Table 1 for % Glucose reduction represent a summary of the percent reduction from vehicle control animals at day 7 relative to normalization defined in this model as plasma glucose levels of 140 mg/dL.

Q: With `C/C(=C/C(=O)c1ccccc1)N[C@@H](Cc1ccc(OCCc2nc(-c3ccccc3)oc2C)cc1)C(=O)O` [Example 1, (2S)-2{[(Z)-1-methyl-3-oxo-3-phenyl-1-propenyl]amino}-3-{4-[2-(5-methyl-2-phenyl-1,3-oxazol-4-yl)ethoxy]phenyl}propanoic acid] as the compound, how does the “% Glucose Reduction” value read?
A: 39%

Q: With `C/C(=C/C(=O)c1ccccc1)N[C@@H](Cc1ccc(OCCc2nc(-c3ccc(C(F)(F)F)cc3)oc2C)cc1)C(=O)O` [Example 7, (2S)-2-{[(Z)-1-methyl-3-oxo-3-phenyl-1-propenyl]amino}-3-[4-(2-{5-methyl-2-[4-(trifluoromethyl)phenyl]-1,3-oxazol-4-yl}ethoxy)phenyl]propanoic acid] as the compound, how does the “% Glucose Reduction” value read?
A: 34%

Q: With `C/C(=C/C(=O)c1ccc(F)c(F)c1F)N[C@@H](Cc1ccc(OCCc2nc(-c3ccccc3)oc2C)cc1)C(=O)O` [Example 12, (2S)-2-{[(Z)-1-methyl-3-oxo-3-(2,3,4-trifluorophenyl)-1-propenyl]amino}-3-{4-[2-(5-methyl-2-phenyl-1,3-oxazol-4-yl)ethoxy]phenyl}propanoic acid] as the compound, how does the “% Glucose Reduction” value read?
A: 61%

Q: Which “% Glucose Reduction” value does the source give for `C/C(=C/C(=O)c1cc(F)c(F)cc1F)N[C@@H](Cc1ccc(OCCc2nc(-c3ccccc3)oc2C)cc1)C(=O)O` [Example 16, (2S)-2-{[(Z)-1-methyl-3-oxo-3-(2,4,5-trifluorophenyl)-1-propenyl]amino}-3-{4-[2-(5-methyl-2-phenyl-1,3-oxazol-4-yl)ethoxy]phenyl}propanoic acid] here?
A: 59%

Q: Which “% Glucose Reduction” value does the source give for `CC/C(=C/C(=O)c1ccccc1)N[C@@H](Cc1ccc(OCCc2nc(-c3ccccc3)oc2C)cc1)C(=O)O` [Example 20, (2S)-2-{[(Z)-1-ethyl-3-oxo-3-phenyl-1-propenyl]amino}-3-{4-[2-(5-methyl-2-phenyl-1,3-oxazol-4-yl)ethoxy]phenyl}propanoic acid] here?
A: 50%

Q: How did the “% Glucose Reduction” value turn out when `Cc1sc(-c2ccc(F)cc2)nc1CCOc1ccc(C[C@H](N/C(=C\C(=O)c2ccccc2)C(F)(F)F)C(=O)O)cc1` [Example 21, (2S)-3-(4-{2-[2-(4-fluorophenyl)-5-methyl-1,3-thiazol-4-yl]ethoxy}phenyl)-2-{[(Z)-3-oxo-3-phenyl-1-(trifluoromethyl)-1-propenyl]amino}propanoic acid] was run?
A: 82%

Q: How did the “% Glucose Reduction” value turn out when `CC/C(=C/C(=O)c1ccc(C(F)(F)F)cc1)N[C@@H](Cc1ccc(OCCc2nc(-c3ccc(F)cc3)sc2C)cc1)C(=O)O` [Example 22, (2S)-2-({(Z)-1-ethyl-3-oxo-3-[4-(trifluoromethyl)phenyl]-1propenyl}amino)-3-(4-{2-[2-(4-fluorophenyl)-5-methyl-1,3-thiazol-4-yl]ethoxy}phenyl)propanoic acid] was run?
A: 49%

Q: `CCCC/C(=C/C(=O)c1ccccc1)N[C@@H](Cc1ccc(OCCc2nc(-c3ccccc3)oc2C)cc1)C(=O)O` [Example 23, (2S)-2-{[(Z)-1-butyl-3-oxo-3-phenyl-1-propenyl]amino}-3-{4-[2-(5-methyl-2-phenyl-1,3-oxazol-4-yl)ethoxy]phenyl}propanoic acid] was tested. Which “% Glucose Reduction” value did it give?
A: 86%

Q: Which “% Glucose Reduction” value does the source give for `C/C(=C/C(=O)c1ccc(Cl)cc1)N[C@@H](Cc1ccc(OCCc2nc(-c3ccccc3)oc2C)cc1)C(=O)O` [Example 24, (2S)-2-{[(Z)-3-(4-chlorophenyl)-1-methyl-3-oxo-1-propenyl]amino}-3-{4-[2-(5-methyl-2-phenyl-1,3-oxazol-4-yl)ethoxy]phenyl}propanoic acid] here?
A: 45%

Q: Which “% Glucose Reduction” value does the source give for `CCC/C(=C/C(=O)c1ccccc1)N[C@@H](Cc1ccc(OCCc2nc(-c3ccccc3)oc2C)cc1)C(=O)O` [Example 40] here?
A: 79%

Q: How did the “% Glucose Reduction” value turn out when `Cc1oc(-c2ccccc2)nc1CCOc1ccc(C[C@H](N/C(=C\C(=O)c2ccccc2)C(F)(F)F)C(=O)O)cc1` [Example 48, (2S)-3-{4-[2-(5-methyl-2-phenyl-1,3-oxazol-4-yl)ethoxy]phenyl}-2{[(Z)-3-oxo-3-phenyl-1-(trifluoromethyl)-1-propenyl]amino}propanoic acid] was run?
A: 81%
